Test results taken from patent US9415106B2, “α-form zinc-phthalocyanine nanowires having enhanced water solubility and water dispersibility, composite of an α-form zinc-phthalocyanine nanowire/phenothiazine, and method for preparing same” (POHANG UNIVERSITY OF SCIENCE AND TECHNOLOGY INDUSTRY …, priority 2011, dated 2016).

Experiments:
[1] = Water solubility, dispersibility and stability of aqueous solution after sonication; type: physicochemical
Method: An α-form ZnPc nanowire solution was prepared by adding 1 mg of α-form ZnPc nanowires collected from Si substrates into 5 ml of water, followed by sonication for various times in a bath sonicator (UC-10, JEIOTECH). The final solution was transferred for the measurement of optical absorbance using a UV-vis spectrometer (Agilent 8453 spectrophotometer). The concentration of the α-form ZnPc nanowire solution was determined by measurement of optical absorbance at 219 nm. The calibration curve was made by measuring the optical absorbance of a sequentially diluted solution at 219 nm.

KB cells = assay: ROS generation in KB cells (Image-iT LIVE ROS Kit, H2DCFDA fluorescence); type: cell-based, human; conditions: irradiated with NIR 808 nm, 3 W/cm^2
Method: The PD activity of α-form ZnPc nanowire was proven by detecting reactive oxygen species generated upon illumination with NIR upon irradiation with NIR (λ=808 nm) laser. The reactive oxygen species generated from NIR-activated KB cells containing α-form ZnPc nanowires was assessed using Image-iT™ LIVE Reactive Oxygen Species (ROS) Kit.
This experiment is based on 5-(and-6)-carboxy-2′7′-dichlorodihydrofluorescein diacetate (carboxy-H2DCFDA) as a fluorogenic marker for ROS permeated viable cells. In the presence of ROS, the reduced carboxy-H2DCFDA is supposed to be oxidized to emit bright green fluorescence. Therefore, the oxidatively stressed cells by ROS could be recognized by green fluorescence.
The generation of reactive oxygen species (ROS) was monitored using Image-iT™ LIVE Reactive Oxygen Species Kit based on H2DCFDA (Molecular Probes/Invitrogen), following the manufacturer's protocol. Pre-seeded epidermoid mouth carcinoma cells (KB cells) were incubated with ZnPc nanowire solution (120 mg/L) at 37° C. with 5% CO2 for 18 hours. Then, after washing the cells thoroughly with phosphate buffer saline (PBS), the cells were irradiated with an 808 nm laser. […] In the presence of ROS, the reduced fluorescein compound is oxidized and emits bright green fluorescence. Fluorescence intensity was measured at 529 nm using a fluorescence spectrometer (Cary Eclipse, Varian).

[2] = Photothermal property: temperature change of aqueous solutions upon laser irradiation; type: physicochemical; conditions: 3 W/cm^2, 3 minutes
Method: The PT property was examined by monitoring temperature changes of α-form ZnPc nanowire aqueous solutions (60, 80, 120 mg/L) upon light illumination at two different wavelengths (λ) of 660 nm, at which the highest absorption occurs, and 808 nm, at which most biological systems become transparent, at the power of 3 W/cm^2.
The α-form ZnPc nanowire solution and zinc phthalocyanine tetrasulfonate (ZnPcS4) solutions at various concentrations (60, 80, 120 mg/L) were irradiated using a 660/808 nm laser (diode laser, JENOPTIK unique-mode GmbH, Germany) at 3 W/cm^2. The temperature of each solution was measured with a thermocouple connected temperature controller (Hanyoung, Korea) at 20-second intervals for a total of 3 minutes. Three sets per each solution were measured.

water solubility (qualitative) [1]	temperature of solution upon laser irradiation ([2]; 660 nm (FIGS. 18, 19), from room temperature, 60-120 mg/L)	temperature of solution upon laser irradiation ([2]; 808 nm, 120 mg/L)	Molecule	amount of ROS generated (green fluorescence) (KB cells)
did not increase			[Zn+2].c1ccc2c(c1)-c1nc-2nc2[n-]c(nc3nc([n-]c4nc(n1)-c1ccccc1-4)-c1ccccc1-3)c1ccccc21 [ZnPc powder, zinc-phthalocyanine]	
	similar	negligible temperature changes	zinc phthalocyanine tetrasulfonate [ZnPcS4]	insignificant
